Results on eleven compounds are retold here after EPA's ToxValDB 9.5.

In one data set the test system is Mus musculus. Conditions: oral; for NOAEL: duration: 10 days, gavage.
Data set [1] deals with Canidae. The conditions noted are these: oral, diet, Beagle.
Data set [2] has as its system Rattus norvegicus.
The next data set deals with Oryctolagus sp. The conditions noted are these: acute; dermal.
Data set [3] deals with Rattus norvegicus. Conditions: oral.
Data set [4] relates to Rattus norvegicus. The conditions noted are these: short-term, duration: 28 days, oral, M/F.
For data set [5], the system named is Canidae. The conditions noted are these: oral, Beagle.
Data set [6] concerns Canidae. Conditions: subchronic; oral; M/F; Dog Other; red blood cell and liver effects.
The subject of the next data set is Homo sapiens. The conditions noted are these: clinical; duration: 6 hours; inhalation; M; neurological.
Data set [7] has as its system Rattus norvegicus. Conditions: short-term; duration: 14 days; oral; gavage; M; Wistar; neurological.
[8] abbreviates: chronic, duration: 12 months, capsule, M/F, Decreased bodyweight gains & peripheral redness.
[9] abbreviates: duration: 12 months, capsule, M/F, Decreased bodyweight gains & peripheral redness.

Each structure is given as a SMILES string. “And” between values parts separate entries of the source, which are not always exact repeats. Identical values can stand only once.

`CCC(CC)C(C)COC(=O)c1ccccc1C(=O)OCC(C)C(CC)CC` (stereo unspecified) [Di-C7-9-branched and linear alkyl phthalates]: the 50% lethal dose (LD50) in the data set on Mus musculus (acute) was above 26000 mg/kg; with Rattus norvegicus [2] (acute, oral), above 22000 mg/kg. Also, the no-observed-adverse-effect level (NOAEL) amounted to 100 mg/kg-day in the data set with Canidae [1] (chronic, duration: 14 weeks) and 100 mg/kg-day with Rattus norvegicus [2] (short-term, duration: 4 weeks, oral, diet). The “NOAEL (% diet)” value was found to be 1 in the data set with Rattus norvegicus [2] (reproduction developmental, oral, diet, Sprague-Dawley, generation: F0) and 1 in the data set on Rattus norvegicus [2] (reproduction developmental, oral, diet, Sprague-Dawley, generation: F1).

For `CC(C)CCCCCCOC(=O)CCCCC(=O)OCCCCCCC(C)C` [Diisononyl adipate], the LD50 is above 3160 mg/kg in the data set on Oryctolagus sp. and above 10000 mg/kg in the data set with Rattus norvegicus [2] (acute, oral, gavage). Further, the no-observed-adverse-effect level (NOAEL) amounted to 274 mg/kg-day with Canidae [1] (subchronic, duration: 13 weeks) and 500 mg/kg-day with Rattus norvegicus [2] (subchronic, duration: 13 weeks, oral, diet).

In turn, `CC1(C)C(C=C(Cl)c2ccc(Cl)cc2)C1C(=O)OC(C#N)c1ccc(F)c(Oc2ccccc2)c1` (stereo unspecified) [Flumethrin] gave an NOAEL in the data set with Rattus norvegicus [3] (developmental, Reduced pup survival and bodyweight gain. Maternal toxicity: salivation) of 0.37 mg/kg-day.

Consider `CCCC[C@@H](C)[C@@H](OC(=O)C[C@@H](CC(=O)O)C(=O)O)[C@H](C[C@@H](C)C[C@H](O)CCCC[C@@H](O)C[C@H](O)[C@H](C)N)OC(=O)C[C@@H](CC(=O)O)C(=O)O` [Fumonisin B1], for which the NOEL is below 99 ppm in the data set on Rattus norvegicus [4] (diet, Fischer 344, Body Weight Changes: decrease + Blood Chemistry: Crn increase, TP increase, Cho increase, TG increase, ALT increase, ALP increase, AST …) and 0.2 mg/kg-day in the data set with Rattus norvegicus [3] (subchronic, duration: 90 days, diet, M/F, Fischer 344, Nephrotoxicity).

Take `Cc1c(Cc2cc(C(C)(C)C)c(O)c(C(C)(C)C)c2)c(C)c(Cc2cc(C(C)(C)C)c(O)c(C(C)(C)C)c2)c(C)c1Cc1cc(C(C)(C)C)c(O)c(C(C)(C)C)c1` [Ionox 330]: the NOAEL is 185 mg/kg-day in the data set on Canidae [1] (subchronic, duration: 90 days); above 960 mg/kg-day in the data set with Rattus norvegicus [2] (subchronic, duration: 90 days, oral, diet); 480 mg/kg-day in the data set on Rattus norvegicus [2] (subchronic, duration: 90 days, oral, diet, albino). The 50% lethal dose (LD50) in the data set on Rattus norvegicus [2] (acute, dermal, semiocclusive) is above 2000 mg/kg; in the data set with Rattus norvegicus [2] (acute, injection, intraperitoneal, Sprague-Dawley) it was above 1000 mg/kg; in the data set with Rattus norvegicus [2] (acute, oral, Carworth 'E' and 'N' strains), above 5000 mg/kg.

In the case of `CC(C)(C)c1cc(CCC(=O)OCC(COC(=O)CCc2cc(C(C)(C)C)c(O)c(C(C)(C)C)c2)(COC(=O)CCc2cc(C(C)(C)C)c(O)c(C(C)(C)C)c2)COC(=O)CCc2cc(C(C)(C)C)c(O)c(C(C)(C)C)c2)cc(C(C)(C)C)c1O` [Irganox 1010], the NOAEL with Mus musculus (developmental) was 1000 mg/kg-day; in the data set on Mus musculus (developmental, NMRI), 1000 mg/kg-day; with Mus musculus (reproduction developmental, F), 1000 mg/kg-day; in the data set with Canidae [1] (subchronic, duration: 3 months), 322 mg/kg-day; in the data set on Rattus norvegicus [2] (developmental, duration: 10 days, oral, gavage, Sprague-Dawley), 1000 mg/kg-day; in the data set on Rattus norvegicus [2] (reproduction developmental, duration: 10 months, oral, diet, generation: F0), 10000 ppm. Also, the NOAEL was 10000 ppm in the data set on Rattus norvegicus [2] (reproduction developmental, duration: 10 months, oral, diet, generation: F1); 10000 ppm in the data set with Rattus norvegicus [2] (reproduction developmental, duration: 10 months, oral, diet, generation: F2); 2500 mg/kg-day in the data set with Rattus norvegicus [2] (subchronic, duration: 3 months, oral, diet, Sprague-Dawley). Also, the median lethal dose (LD50) with Oryctolagus sp. was above 3160 mg/kg; with Rattus norvegicus [2] (acute, oral) it was above 5000 mg/kg. Besides, the LC50 in the data set on Rattus norvegicus [2] (acute, inhalation) was above 1.96 µg/mL.

`c1ccc([C@H]2CN3CCSC3=N2)cc1` [Levamisole] displayed an LOEL with Canidae [5] (immunotoxicology, duration: 14 months, capsule, Re-emergence of haemolytic anaemia) of 1.25 mg/kg-day.

`CC[C@@]1([C@@H]2O[C@@H]([C@H]3O[C@@](O)(CO)[C@H](C)C[C@@H]3C)C[C@@H]2C)CC[C@H]([C@]2(C)CC[C@]3(C[C@H](O)[C@@H](C)[C@@H]([C@@H](C)[C@@H](OC)[C@H](C)C(=O)O)O3)O2)O1` [Monensin]: the NOAEL in the data set on Rattus norvegicus [3] (chronic, duration: 2 years, diet, M/F, Wistar, Decreased bodyweight gain) was 1.14 mg/kg-day.

Regarding `CCOP(=S)(OCC)ON=C(C#N)c1ccccc1` [Phoxim], the NOEL with Rattus norvegicus [4] (gavage, Slc: Wistar, Clinical Observation: Salivation + Body Weight Changes: decrease + Hematology: Hgb decrease, , Hct decrease, Plt increase, WBC increase + …) is below 7.5 mg/kg-day; in the data set on Rattus norvegicus [4] (gavage, Wistar, Clinical Observation: Salivation + Body Weight Changes: Weight gain decrease + Blood Chemistry: TP increase, ALB increase, A/G increasegamma…), below 7.5 mg/kg-day; in the data set on Canidae [5] (chronic, duration: 2 years, diet, M/F, Liver effects and inhibition of brain acetylcholinesterase activity) it was 0.38 mg/kg-day; with Canidae [5] (duration: 2 years, feed, M/F, Liver effects and inhibition of brain acetylcholinesterase activity), 0.38 mg/kg-day.

With `C=Cc1ccccc1` [Styrene], the LOAEL in the data set with Canidae [6] was 400 mg/kg-day; in the data set on Rattus norvegicus [7] it was 100 mg/kg-day. Also, the values for the no-observed-adverse-effect level (NOAEL) in the data set on Canidae [6] and in the data set on Homo sapiens were 200 mg/kg-day and 209 mg/m3, respectively. Also, in the data set with Rattus norvegicus [3] (chronic, duration: 2 years, drinking water, M/F, Sprague-Dawley, Decreased bodyweight, females), the NOEL was 7.7 mg/kg-day and 14 mg/kg-day.

For `CC[C@H]1OC(=O)C[C@@H](O)[C@H](C)[C@@H](O[C@@H]2O[C@H](C)[C@@H](O)[C@H](N(C)C)[C@H]2O)[C@@H](CCN2C[C@H](C)C[C@H](C)C2)C[C@@H](C)C(=O)/C=C/C(C)=C/[C@@H]1CO[C@@H]1O[C@H](C)[C@@H](O)[C@@H](OC)[C@H]1OC` [Tilmicosin], the LOEL with Canidae [5] (setting [8]) and in the data set on Canidae [5] (setting [9]) was 12 mg/kg-day in each case. In addition, the NOEL with Canidae [5] (setting [8]) and in the data set on Canidae [5] (setting [9]) was 4 mg/kg-day throughout.
